Reference: patent US10995068B2, “Synthetic sphingolipid-like molecules, drugs, methods of their synthesis and methods of treatment” (The Regents of the University of California, priority 2015, dated 2021)
“Also recorded” adds a separate entry of the source.

Legend:
[1] = system: murine hematopoietic cell line FL5.12; assay: Viability of FL5.12 cells by vital dye exclusion; type: cell-based; conditions: FL5.12 cells, 48 h, vital dye exclusion, n ≥3
Description: (§1) Cell culture studies: FL5.12 cells (murine hematopoetic cells originally obtained from Craig Thompson, Memorial Sloan Kettering Cancer Center) were maintained at 0.1-0.5 million/ml in RPMI 1640 (Mediatech) supplemented with 10% fetal calf serum (FCS, Sigma-Aldrich), 10 mM Hepes (Mediatech), 500 pg/ml recombinant IL-3 (cat #575502, Biolegend), 55 μM β-mercaptoethanol (Sigma-Aldrich), 2 mM L-glutamine (Mediatech), and antibiotics. Cells were screened for Mycoplasma every 3 months using the Look-Out Mycoplasma PCR Detection kit (cat #MP0035, Sigma).
IC50 values were calculated using GraphPad Prism (GraphPad Software, Inc, La Jolla, Calif.).

[2] = system: FL5.12 cells; assay: Vacuolation assay; type: cell-based, murine; parameters: key to Vacuolation score: 0-100 score: (3×%cat3+2×%cat2+1×%cat1)/3; cells graded 0-3 for vacuoles; conditions: FL5.12 cells; for Vacuolation score: 3 h in 2.5 μM compound except where otherwise indicated, mean ± SEM, n ≥3; for vacuolation (in words): at any dose / highest dose tested
Description: (§2) In an exemplified study, nutrient transporter down-regulation was monitored by quantifying surface levels of the amino acid transporter-associated protein, CD98, by flow cytometry. Vacuolation was scored in a range from 0 to […], as determined by a vacuolation assay described in greater detail in the Materials and Methods section below.
Vacuolation assay: Cells were evaluated at 100× using brightfield microscopy and a Nikon TE2000-S fluorescence microscope equipped with DIC filters. Vacuolation was quantified after a 3 h incubation period in 2.5 μM compound except where otherwise indicated. To calculate a vacuolation score, vacuolation severity in at least 15 individual cells/experiment was assessed qualitatively. Scores were assigned to individual cells as follows: 0=no vacuoles, 1=very small vacuoles, 2=multiple well-defined vacuoles, 3=multiple large vacuoles. To calculate the vacuolation score associated with a compound, the following formula was used: vacuolation score=[(3×% cells in category 3)+(2×% cells in category 2)+(1×% cells in category 1)]/3.
The score is divided by 3 so that a compound with 100% of its cells in category 3 would have a vacuolation score of 100. Three independent experiments were conducted and the vacuolation scores averaged to generate a mean+/−SEM. All cells were scored by one lab member after confirming that a blinded individual scored 5 compounds with similar results.

[3] = system: PP2A; assay: PP2A phosphatase activity; type: biochemical, murine; conditions: PP2A immunoprecipitated from FL5.12 cell lysates, phosphopeptide dephosphorylation
Source text: Furthermore, many embodiments of the invention are directed to azacyclic constrained sphingolipid-like molecules inducing internalization of nutrient transporters via a mechanism that activates PP2A. […] Thus, activation of PP2A is very peculiar to certain sphingolipid structures. Activation of PP2A by FTY720 and SH-BC-893 also stimulated vacuolation, and as the PP2A inhibitors calyculin A and SV40 small t antigen, each blocked this effect (FIG. 59C). Of note, YM201636-induced vacuolation was unaffected by PP2A inhibition (FIG. 60B). In addition, inhibiting PP2A restored PIKfyve to the proper location within vacuoles in cells treated with FTY720 or SH-BC-893 (FIG. 57D).
PP2A phosphatase activity. PP2A activity was measured using a PP2A immunoprecipitation phosphatase assay kit (EMD Millipore). Briefly, the catalytic subunit of PP2A was immunoprecipitated from FL5.12 cell lysates with 4 μg anti-PP2A, C subunit. After four washes, the activity of immunoprecipitated PP2A was assessed by dephosphorylation of the phosphopeptide according to the manufacturer's instructions in the presence or absence of C2-ceramide, dihydro-C2-ceramide, FTY720, SH-BC-893, or calyculinA.

[4] = system: Breast (MDA-MB-231) cancer cell line; assay: IC50 in cancer cell lines (Table 3), breast; type: cell-based, human; conditions: Mean ± SEM, n ≥ 3
Description: (§3) Having observed a suitable potency of some embodiments of the invention, including, at least with compounds 3-6, 14 in prostate cancer cell lines, other cancer cell lines were tested with these compounds. […] Compounds that were active in prostate cancer cell lines also killed BCR-Abl-positive leukemia cells with similar potency to FTY720.
(§4) Cell culture studies: Sup-B15 cells are maintained at 2-3 million/mL in RPMI 1640 (Mediatech) supplemented with 10% fetal calf serum (FCS, Sigma-Aldrich), 10 mM Hepes (Mediatech), 55 μM β-mercaptoethanol (Sigma-Aldrich), 2 mM L-glutamine (Mediatech), and antibiotics. All adherent cells are maintained at 70-80% confluence. Cell are cultured in the following media: PC3 & A549, Ham's F12K (Corning Cell Gro) supplemented with 10% FCS and antibiotics; DU145 cells, MEM (Corning Cell Gro) supplemented with 10% FCS, 1 mM sodium pyruvate (Mediatech), and antibiotics; SW620 & MDA-MB-231, DMEM (Corning Cell Gro) with 10% FCS, 1 mM sodium pyruvate (Mediatech), and antibiotics; Panc-1 cells, DMEM (Corning Cell Gro) supplemented with 10% FCS and antibiotics. All of the above cell lines are available from the ATCC.
(§5) Viability assays: Cell Titer Glo assays (Cell Titer Glo Luminescent Cell Viability Assay kit, cat #G7571, Promega Corporation) are performed in clear bottom 96-well black cell culture plates (cat #655090, Greiner Bio-One, NC, USA). After plating at 1,000 cells/well in volume of 100 μl, cells are left undisturbed for at least 24 h before drug addition. After 72 h, cells are prepared for analysis by adding 10 μl of 0.1% Triton-X100 in PBS with shaking for 1 min at room temperature (RT). Cell Titer-Glo cell lysis reagent (20 μl) is then added followed by 1 min of shaking and a 10 min incubation in the dark at RT. Luminescence is detected using an IVIS imaging system (IVIS Lumina II, Perkin Elmer, USA). […] IC50s are determined using GraphPad Prism (GraphPad Software, Inc, La Jolla, Calif.). SupB-15 viability was determined by flow cytometry. Cell Titer Glo assays were performed with the other cell lines.

[5] = biological target: T1, S1P receptor 4 (Homo sapiens, UniProt O95977); assay: S1P receptor activation in CHO cells, S1P4; type: cell-based; conditions: CHO cells over-expressing human S1P4
T1 construct: expressed in transfected cells
T1 sequence (O95977 1-384): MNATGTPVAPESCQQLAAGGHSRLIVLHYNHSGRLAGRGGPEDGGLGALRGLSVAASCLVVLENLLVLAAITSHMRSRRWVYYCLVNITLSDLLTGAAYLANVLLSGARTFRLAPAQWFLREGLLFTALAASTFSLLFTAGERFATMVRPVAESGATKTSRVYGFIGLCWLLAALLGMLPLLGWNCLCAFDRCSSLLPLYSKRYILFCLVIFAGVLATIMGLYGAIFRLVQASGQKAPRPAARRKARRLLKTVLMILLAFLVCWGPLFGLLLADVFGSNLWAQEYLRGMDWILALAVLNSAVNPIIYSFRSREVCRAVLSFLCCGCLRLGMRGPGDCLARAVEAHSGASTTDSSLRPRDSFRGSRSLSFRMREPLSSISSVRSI
Source text: (§6) Phosphorylation may have effects on S1P receptor activity that could cause bradycardia. Bradycardia, the dose-limiting toxicity that prevents the use of FTY720 in cancer patients, stems from FTY720-P's actions on S1P receptors 1 and 3. (Camm, J., et al. (2014) Am. Heart J. 168, 632-644; Cohen, J. A., Chun, J. (2011) Ann. Neurol. 69, 759-777; Sanna, M. G., et al. (2004) J. Biol. Chem. 279, 13839-13848; the disclosures of which are incorporated herein by reference). Phosphorylation by sphingosine kinase may make compounds competent to activate S1P receptors. FTY720, for example, when phosphorylated is known to activate S1P receptors 1 and 3. Because compound 5 could be phosphorylated, the activity of compound 5 and its phosphate 5-P (FIG. 28) on S1P receptors was evaluated (FIG. 32).
(§7) 51P1-5 activation: Chinese hamster ovary (CHO) cells stably over-expressing the different human 51P receptor subtypes are used. S1P1, S1P4 and S1P5 overexpressing CHO cells are cultured in medium containing alpha-MEM supplemented with 10% FBS, 50 μg/ml gentamycin and 0.5 mg/ml G418. S1P2 and S1P3 overexpressing CHO cells are cultured in RPMI containing 10% FBS, 50 μg/ml gentamycin and 0.5 mg/ml G418. Prior to stimulation, cells are rendered serum-free for 24 h. Stimulation is carried out for 10 min in serum-free DMEM containing 0.1 mg/ml of fatty-acid free BSA in the absence or presence of the various compounds or 51P. Protein lysates are prepared using a buffer containing (50 mM Tris pH 7.4, 150 mM NaCl, 10% glycerol, 1% Triton X-100, 2 mM EDTA, 2 mM EGTA, 40 mM β-glycerophosphate, 50 mM sodium fluoride, 10 mM sodium pyrophosphate, 2 mM dithiothreitol, 0.2 mM sodium orthovanadate). Cells are homogenized by one 5 sec burst in a MSE Ultrasonic Disintegrator, centrifuged and taken for protein determination. Equal amounts of protein are separated by SDS-PAGE (10% polyacrylamide gel), transferred to nitrocellulose membranes and subjected to Western blot analysis. Bands were stained using IRDye® secondary antibodies and visualized by the LICOR Odyssey® Fc Imaging system. Antibodies against phospho-Thr202/Tyr204-p42/p44-MAPK and phospho-Ser PKC substrate are from Cell Signaling, Frankfurt am Main, Germany. Polyclonal antisera against total p42 and total p44 were generated and characterized as previously described. (Huwiler, A.; Pfeilschifter, J. Br. J. Pharmacol. 1994, 113, 1455-1463; disclosure of which is incorporated herein by reference).

[6] = biological target: T2, S1P receptor 2 (Homo sapiens, UniProt O95136); assay: S1P receptor activation in CHO cells, S1P2; type: cell-based; conditions: CHO cells over-expressing human S1P2
T2 construct: expressed in transfected cells
Source text: as §6, §7

[7] = biological target: T3, S1P receptor 1 (Homo sapiens, UniProt P21453); assay: S1P receptor activation in CHO cells, S1P1; type: cell-based; conditions: CHO cells over-expressing human S1P1, 10 min stimulation, Western blot
T3 construct: expressed in transfected cells
Source text: as §6, §7

[8] = system: Leukemia (SupB-15) cells; assay: IC50 in cancer cell lines (Table 3), leukemia; type: cell-based, human; conditions: flow cytometry; Mean ± SEM, n ≥ 3
Description: as §3, §4, §5

[9] = system: PC3 prostate cancer cells; assay: Cell viability by vital dye exclusion and flow cytometry in PC3; type: cell-based, human; conditions: vital dye exclusion (DAPI) and flow cytometry, 72 h
Description: Thus, to determine whether analogues in accordance with embodiments of the invention are cytotoxic, studies were conducted using vital dye exclusion and flow cytometry (Table 2).
as §5

[10] = system: PC3 prostate cancer cells; assay: Cell Titer Glo proliferation assay in PC3; type: cell-based, human; conditions: Cell Titer Glo, 72 h; Mean ± SEM, n ≥ 3; read-out: IC50 values in prostate cancer cell lines, PC3
Description: (§8) Previously presented compounds 1-4 (FIG. 23), compounds 5-8 (FIG. 28), and control compound FTY720 (FIG. 2) were used to treat the well-established PC3 and DU145 prostate cancer lines (FIG. 29 and Table 1). A Cell Titer Glo assay was performed to measure proliferation of the cancer lines.
as §4, §5

[11] = biological target: T4, S1P receptor 3 (Homo sapiens, UniProt Q99500); assay: S1P receptor activation in CHO cells, S1P3; type: cell-based; conditions: CHO cells over-expressing human S1P3
T4 construct: expressed in transfected cells
Source text: as §6, §7

[12] = system: Pancreas (PANC-1) cancer cell line; assay: IC50 in cancer cell lines (Table 3), pancreas; type: cell-based, human; conditions: Mean ± SEM, n ≥ 3
Description: as §3, §4, §5

[13] = system: Lung (A-549) cancer cell line; assay: IC50 in cancer cell lines (Table 3), lung; type: cell-based, human; conditions: Mean ± SEM, n ≥ 3
Description: as §3, §4, §5

[14] = system: Colon (SW-620) cancer cell line; assay: IC50 in cancer cell lines (Table 3), colon; type: cell-based, human; conditions: Mean ± SEM, n ≥ 3
Description: as §3, §4, §5

[15] = biological target: T5, S1P receptor 5 (Homo sapiens, UniProt Q9H228); assay: S1P receptor activation in CHO cells, S1P5; type: cell-based; conditions: CHO cells over-expressing human S1P5
T5 construct: expressed in transfected cells
Source text: as §6, §7

[16] = system: DU145 prostate cancer cells; assay: Cell Titer Glo proliferation assay in DU145; type: cell-based, human; conditions: 72 h, Mean ± SEM, n ≥ 3, read-out: IC50 values in prostate cancer cell lines, DU145
Description: as §8, §4, §5

[17] = system: CD98 (4F2hc, SLC3A2); assay: Surface CD98 nutrient transporter down-regulation by flow cytometry; type: cell-based, murine; conditions: FL5.12 cells
Source text: as §2, §1
Nutrient transporter expression: Surface CD98 (4F2hc, SLC3A2) expression was measured at 3 h using phycoerythrin (PE)-conjugated rat anti-mouse CD98 antibody (Biolegend, cat #128208); analysis was restricted to viable cells. PE conjugated Rat IgG2a, k (cat #400508, Biolegend) was used as an isotype control. For staining, 200,000 cells were pelleted, re-suspended in 100 μl FACS block (PBS with 10% FCS and 0.05% NaN3) containing 0.25 μL anti-CD98 antibody, incubated on ice for 30 min, washed twice with 1 ml FACS wash (PBS containing 2% FCS and 0.05% NaN3), and analyzed on a BD LSR II flow cytometer. Data was processed with FlowJo software (Treestar).

T4 sequence (Q99500 whole entry): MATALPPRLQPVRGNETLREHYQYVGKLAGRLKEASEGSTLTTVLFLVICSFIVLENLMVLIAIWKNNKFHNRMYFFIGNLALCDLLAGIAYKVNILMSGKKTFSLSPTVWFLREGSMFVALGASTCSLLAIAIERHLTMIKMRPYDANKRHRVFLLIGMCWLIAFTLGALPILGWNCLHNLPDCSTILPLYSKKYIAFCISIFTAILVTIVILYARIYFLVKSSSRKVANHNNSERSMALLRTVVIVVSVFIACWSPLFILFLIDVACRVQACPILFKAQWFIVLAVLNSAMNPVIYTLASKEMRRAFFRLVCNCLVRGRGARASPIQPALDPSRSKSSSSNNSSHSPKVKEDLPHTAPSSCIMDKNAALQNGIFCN
T2 sequence (O95136 whole entry): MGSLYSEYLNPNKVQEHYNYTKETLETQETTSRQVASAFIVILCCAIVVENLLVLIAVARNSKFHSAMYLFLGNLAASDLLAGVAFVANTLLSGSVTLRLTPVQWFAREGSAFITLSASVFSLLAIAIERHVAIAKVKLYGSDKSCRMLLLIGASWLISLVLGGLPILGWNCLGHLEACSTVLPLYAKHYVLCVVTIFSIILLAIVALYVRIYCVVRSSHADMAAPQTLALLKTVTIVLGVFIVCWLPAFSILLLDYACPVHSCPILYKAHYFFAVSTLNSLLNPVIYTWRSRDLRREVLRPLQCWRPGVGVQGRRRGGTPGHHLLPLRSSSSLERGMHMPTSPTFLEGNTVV
T3 sequence (P21453 whole entry): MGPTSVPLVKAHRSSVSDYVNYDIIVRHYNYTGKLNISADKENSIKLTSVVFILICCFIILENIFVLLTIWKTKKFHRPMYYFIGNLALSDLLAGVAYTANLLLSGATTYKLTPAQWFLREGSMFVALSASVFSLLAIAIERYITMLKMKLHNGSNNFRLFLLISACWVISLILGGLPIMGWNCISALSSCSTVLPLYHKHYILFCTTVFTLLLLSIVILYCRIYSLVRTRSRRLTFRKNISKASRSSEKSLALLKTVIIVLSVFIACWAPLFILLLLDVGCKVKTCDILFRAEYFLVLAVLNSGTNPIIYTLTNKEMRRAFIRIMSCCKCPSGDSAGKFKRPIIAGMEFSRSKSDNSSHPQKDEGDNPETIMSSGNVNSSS
T5 sequence (Q9H228 whole entry): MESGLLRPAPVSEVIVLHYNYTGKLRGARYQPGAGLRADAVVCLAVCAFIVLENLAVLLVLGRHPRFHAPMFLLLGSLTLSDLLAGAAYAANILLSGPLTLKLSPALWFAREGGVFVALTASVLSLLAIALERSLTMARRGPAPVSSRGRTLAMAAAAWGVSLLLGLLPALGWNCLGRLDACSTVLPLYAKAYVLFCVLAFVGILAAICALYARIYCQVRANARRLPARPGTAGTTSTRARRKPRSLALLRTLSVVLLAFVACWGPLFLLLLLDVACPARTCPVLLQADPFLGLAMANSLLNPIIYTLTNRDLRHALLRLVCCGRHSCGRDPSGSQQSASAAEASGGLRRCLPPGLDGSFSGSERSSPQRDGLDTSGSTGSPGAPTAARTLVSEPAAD

Structure (SMILES)	IC50 (μM) [95% CI] [1]	Vacuolation score [2]	vacuolation (in words) [2]	PP2A activation [3]	IC50 [4]	activation of S1P receptor 4 [5]	activation of S1P receptor 2 [6]	activation of S1P receptor 1 [7]	IC50 [8]	IC50 [9]	IC50 [10]	activation of S1P receptor 3 [11]	IC50 [12]	IC50 [13]	IC50 [14]	activation of S1P receptor 5 [15]	IC50 [16]	IC50 ([1]; read-out: IC50 (μM) [95% CI])	concentration required to cause similar transporter loss ([17]; CD98 loss)	% CD98 down-regulation ([17]; surface CD98 at 3 h, flow cytometry, mean ± SEM, n ≥3)
CCCCCCCCCCCCCCC[C@@H](O)[C@H](CO)NC(C)=O [Compound 110, dihydro-C2-ceramide, reference compound]	failed to kill cells; also recorded: Cytostatic	0	caused no vacuolation	does not activate PP2A																
CCCCCCCCc1ccc([C@@H]2CCN[C@H]2COC)cc1.Cl [Compound 14]					4 µM	not able to activate	not able to activate	not able to activate	7.5 ± 0.4 µM	4.6 ± 0.4 µM	1.9 ± 0.3 µM	not able to activate	4.8 ± 0.6 µM	7.8 ± 1.8 µM	2.7 ± 0.2 µM	not able to activate	5.6 ± 0.1 µM			
CCCCCCCCCCCCC/C=C/[C@@H](O)[C@H](CO)NC(C)=O [Compound 109, C2-ceramide, reference compound]		0	did not cause vacuolation	activating PP2A														33 µM	50 µM	47 ± 3%
